Reference: patent EP2292225A1 (priority 1997, dated 1998)
Where two headings read alike, the source gives them in different places.

Legend:
[1] = tested on: Vascular smooth muscle (BO54) cells; type: cell-based, baboon
[2] = tested on: vascular smooth muscle cells; type: in vivo, pig; settings: 4 days post-trauma
[3] = Biodistribution after i.p. injection (HPLC); type: in vivo, mice
Protocol: Biodistribution of Cytochalasin B. To determine the biodistribution of cytochalasin B, mice were injected (i.p.) with 50 mg/kg cytochalasin B. Control mice were injected with DMSO/Tween 20/carboxymethyl cellulose ("vehicle"). The mice were sacrificed at 3, 12, 24 and 72 hours after cytochalasin B or vehicle administration. Organs were removed, homogenized, extracted and the amount of cytochalasin B in tissues quantitated by HPLC. About 75% of the cytochalasin B remained in the peritoneal cavity or at the injection site.

[4] = 7 day intravenous toxicity study; type: in vivo, rats; settings: 10 µg/ml four times a day for 7 days (800 µg/kg daily)
Protocol: To determine the metabolism of ^3H-cytochalasin B in human blood, ^3H-cytochalasin B (8 µg/ml) was dissolved in saline; 1:1 dilution of saline and human plasma; or 1:1 dilution of saline and human whole blood. […] Toxicity Studies. To determine the toxicity of cytochalasin B, rats (4 male and 4 female) were injected with 10 µg/ml cytochalasin B four times a day for 7 days (Table 11). Data regarding body weight changes, food consumption, food efficiency, hematology parameters, coagulation parameters, serum chemistry parameters, and gross necropsy findings were collected. […] There were no gross or microscopic changes detected in the heart to account for the elevation. Thus, daily administration of cytochalasin B to rats at a dose of 800 µg/kg (for a total injected dose of 5600 µg/kg) may have an effect on heart weight of female (but not male) rats. However, clotted blood was not routinely removed from the heart lumens prior to weighing the heart.

[5] = Seven day intravenous toxicity study; type: in vivo, beagle dogs; settings: seven consecutive days, 10080 min
swine coronary arteries [6] = assay: Dose-response study of balloon traumatized coronary arteries (morphometry); type: in vivo
swine coronary arteries [7] = assay: Swine Coronary Artery Study: MIC catheter infusion after embolectomy or over-sized PTCA balloon trauma, morphometry at 4 weeks; type: in vivo
Protocol: Swine coronary arteries were also traumatized by embolectomy or over-sized PTCA balloon, and then 8-16 ml of cytochalasin B at 8.0 µg/ml was infused into the arterial wall with a MIC catheter to achieve a therapeutic dose. Controls included a diluent control and a traumatized untreated control, and all animals were sacrificed 4 weeks after intervention and coronary arteries were fixed by perfusion. Morphometry was performed on selected sections from proximal, treated and distal segments of coronary arteries (Table 15).
The diameter of, or the area within, the EEL of the artery can be compared to controls as an indicator of the degree of vascular remodeling. The lack of a statistically significant increase in luminal area may be due to increased sample variablility, increased neointimal formation, and/or increased degree of trauma.

left carotid artery [8] = assay: Inter-arterial infusion of crystals after balloon trauma (scintillation, autoradiography, morphometry); type: in vivo, Sprague-Dawley rats; settings: for present over the treated length of artery: 1 mg crystalline in 300 ml vehicle
Protocol: Another study employed twenty, male, Sprague-Dawley rats. The rats underwent balloon trauma to their left carotid artery, followed by inter-arterial infusion of a solution containing 1 mg crystalline cytochalasin B in […] vehicle (Hanks sterile salt solution with 0.5% Cremophor) or a diluent (saline) control. Animals were sacrificed immediately after infusion, and 2, 4, 7 and 14 days post-trauma and infusion. Post-sacrifice, the left and the right (control) carotid arteries were removed. Samples of arteries were obtained for quantitation of ^3H-cytochalasin B by oxidation and scintillation counting, histopathology, autoradiography and vascular morphometry. Histopathology documented uniform, circumferential balloon trauma in the arterial wall of the left carotid arteries.

[9] = tested on: Vascular smooth muscle cells; settings: 1 µg/ml; an anti-migration/contraction effective dose
[10] = mouse, in vivo
left carotid artery [11] = tested on: left carotid artery
[12] = 8.0 µg/ml infused with MIC catheter after embolectomy or over-sized PTCA balloon trauma, sacrificed 4 weeks after intervention, mean
[13] = 8-16 ml at 8.0 µg/ml, 4 weeks after intervention

## C=C1[C@@H](C)[C@H]2[C@H](Cc3ccccc3)NC(=O)[C@]23OC(=O)/C=C/[C@H](O)CCC[C@@H](C)C/C=C/[C@H]3[C@@H]1O [cytochalasin B]
[1]; 5 minute exposure
  minimum effective dose (MED), protein synthesis assay: 10 µg/mL
[1]; 24 hour exposure
  minimum effective dose (MED), protein synthesis assay: 1.0 µg/mL
[2]
  BRDU labeling grade: 4 (4 = > 10/HPF)
[3]; 50 mg/kg i.p.
  organ with the highest amount: highest amount of cytochalasin B was found in the liver
  remained in the peritoneal cavity or at the injection site: About 75%
[3]; may be administered every second day
  maximum tolerated dose: 50 mg/kg
[4]
  only parameter which suggested an adverse effect: elevation of the mean relative heart weight in treated female animals
[5]
  dose without any indication of adverse effects or toxicity: up to 648 µg/kg/day
Swine coronary arteries [6]; 0.1 µg/mL, 4 Days Post Surgery
  Mean % Lumen Area: 97.0%
Swine coronary arteries [6]; 1.5 µg/mL, 4 Days Post Surgery
  Mean % Lumen Area: 101.7%
Swine coronary arteries [6]; 1.5 µg/mL, 21 Days Post Surgery
  Mean % Lumen Area: 100.9%
Swine coronary arteries [6]; 10µg/mL, 4 Days Post Surgery
  Mean % Lumen Area: 103.9%
Swine coronary arteries [6]; 10 µg/mL, 21 Days Post Surgery
  Mean % Lumen Area: 110.9%
Swine coronary arteries [6]; 0.1, 1.5 or 10.0 µg/ml
  myocardial or arterial lesions (histology): did not result in myocardial or arterial lesions
Swine coronary arteries [6]; 0.1 µ/mL, 21 Days Post Surgery
  Mean % Lumen Area: 98.0%
Swine coronary arteries [7]; [12]
  Neointimal Area: 1.56
  luminal area: 0.58
Swine coronary arteries [7]; [13]
  arterial area bounded by the external elastic lamina: trend toward beneficial arterial remodeling
  luminal area: did not result in a statistically significant increase in luminal area
Swine coronary arteries [7]; area bounded by external elastic lamina, 8.0 µg/ml infused with MIC catheter, sacrificed 4 weeks after intervention, mean
  Arterial Area: 1.80
Left carotid artery [8]; crystalline, inter-arterial infusion
  neointima formation compared to diluent treated rats: no statistically significant reduction in neointima formation
Left carotid artery [8]; day 0
  present over the treated length of artery: approximately 8 ug
Left carotid artery [8]; day 2
  present over the treated length of artery: less than 2 ng
[9]
  cytotoxicity grade: 1
[10]
  levels in tissues: very low levels
[10]; iv, 3.5 mg/kg
  maximal recovery from tissue extracts: 32%
Left carotid artery [11]; 14 days, periadventitial crystals
  morphometry compared to untreated control animals: no statistical difference from the controls
Left carotid artery [11]; periadventitial crystals: cytochalasin B 7.8 - 11.8 mg/rat, taxol 3.4 - 6.5 mg/rat
  toxicity at the surgical site: significant toxicity at the surgical site
